From ChEMBL document CHEMBL1909046, “DrugMatrix in vitro pharmacology data”

Legend:
[1] = target: T1, Calcitonin receptor (Homo sapiens, UniProt P30988); format: cell membranes, Membrane; conditions: t47d; note: in other assays of this panel Not Active means under 50% inhibition at 10 µM
T1 sequence (P30988 whole entry): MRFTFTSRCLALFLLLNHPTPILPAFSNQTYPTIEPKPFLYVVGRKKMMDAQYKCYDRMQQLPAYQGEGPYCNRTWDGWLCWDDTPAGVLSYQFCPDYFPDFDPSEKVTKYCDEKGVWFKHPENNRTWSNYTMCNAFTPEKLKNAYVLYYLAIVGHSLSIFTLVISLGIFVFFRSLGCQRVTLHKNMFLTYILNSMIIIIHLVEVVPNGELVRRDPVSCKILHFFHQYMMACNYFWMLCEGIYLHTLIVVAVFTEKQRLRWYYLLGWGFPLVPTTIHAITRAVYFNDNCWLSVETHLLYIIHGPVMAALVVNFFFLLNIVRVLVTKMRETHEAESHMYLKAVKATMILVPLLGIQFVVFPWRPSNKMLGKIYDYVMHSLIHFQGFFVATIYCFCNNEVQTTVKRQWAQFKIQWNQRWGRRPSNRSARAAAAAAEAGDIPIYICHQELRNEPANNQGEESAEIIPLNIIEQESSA

[2] = DRUGMATRIX: Calcium Channel Type L, Phenylalkylamine radioligand binding (ligand: [3H] (-)-Desmethoxyverapamil (D-888)); format: cell membranes, Rattus norvegicus, Wistar, Brain, Membrane; conditions: Not Active = under 50% inhibition at 10 µM
[3] = target: Prostaglandin G/H synthase 1 (Homo sapiens, UniProt P23219); test: biochemical; format: tissue-based, Platelet; conditions: platelet;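 note: inhibition of COX-1 enzyme activity, with arachidonic acid supplied as substrate; in other assays of this panel Not Active means under 50% inhibition at 10 µM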
Chain of Prostaglandin G/H synthase 1 (P23219 whole entry): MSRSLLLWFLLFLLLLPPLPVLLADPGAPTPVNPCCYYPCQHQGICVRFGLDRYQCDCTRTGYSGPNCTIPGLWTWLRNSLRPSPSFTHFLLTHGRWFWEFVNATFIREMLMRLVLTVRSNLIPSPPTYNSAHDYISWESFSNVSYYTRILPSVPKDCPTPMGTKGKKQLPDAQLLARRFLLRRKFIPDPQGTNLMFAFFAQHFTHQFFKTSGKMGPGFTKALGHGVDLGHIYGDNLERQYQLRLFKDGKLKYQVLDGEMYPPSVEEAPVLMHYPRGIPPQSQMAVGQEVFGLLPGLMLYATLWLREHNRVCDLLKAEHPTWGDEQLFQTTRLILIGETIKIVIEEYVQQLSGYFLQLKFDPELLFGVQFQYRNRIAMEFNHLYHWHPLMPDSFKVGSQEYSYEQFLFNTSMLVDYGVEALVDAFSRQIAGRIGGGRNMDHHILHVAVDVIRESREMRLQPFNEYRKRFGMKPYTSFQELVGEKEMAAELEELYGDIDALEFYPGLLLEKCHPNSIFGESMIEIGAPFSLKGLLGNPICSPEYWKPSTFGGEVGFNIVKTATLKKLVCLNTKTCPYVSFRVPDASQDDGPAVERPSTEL

[4] = DRUGMATRIX: Potassium Channel [KATP] radioligand binding (ligand: [3H] Glyburide); format: cell membranes, Membrane; conditions: hit-t15; Not Active = under 50% inhibition at 10 µM
[5] = target: T2, Estrogen receptor (Homo sapiens, UniProt P03372); conditions: sf9; note: in other assays of this panel Not Active means under 50% inhibition at 10 µM
T2 sequence (P03372 whole entry): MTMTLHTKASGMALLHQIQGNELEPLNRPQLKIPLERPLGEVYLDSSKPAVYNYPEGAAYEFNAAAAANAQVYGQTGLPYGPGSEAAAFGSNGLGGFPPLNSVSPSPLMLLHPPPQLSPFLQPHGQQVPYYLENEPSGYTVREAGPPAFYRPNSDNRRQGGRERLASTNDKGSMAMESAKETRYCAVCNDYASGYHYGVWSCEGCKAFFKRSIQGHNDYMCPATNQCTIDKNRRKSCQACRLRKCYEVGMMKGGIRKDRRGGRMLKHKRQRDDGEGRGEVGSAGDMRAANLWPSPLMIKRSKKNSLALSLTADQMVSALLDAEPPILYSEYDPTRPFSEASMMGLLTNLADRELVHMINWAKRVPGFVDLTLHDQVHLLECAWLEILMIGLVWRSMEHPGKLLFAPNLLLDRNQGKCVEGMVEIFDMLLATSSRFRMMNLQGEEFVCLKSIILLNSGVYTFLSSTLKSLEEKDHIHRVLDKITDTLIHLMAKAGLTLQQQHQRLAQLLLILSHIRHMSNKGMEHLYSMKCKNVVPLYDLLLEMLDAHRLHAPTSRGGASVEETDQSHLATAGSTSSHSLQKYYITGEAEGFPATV

[6] = target: T3, Interstitial collagenase (Homo sapiens, UniProt P03956); format: tissue-based, Rheumatoid synovial fibroblasts;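 note: MMP-1 enzyme inhibition assay using a peptide substrate; in other assays of this panel Not Active means under 50% inhibition at 10 µM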
T3 sequence (P03956 whole entry): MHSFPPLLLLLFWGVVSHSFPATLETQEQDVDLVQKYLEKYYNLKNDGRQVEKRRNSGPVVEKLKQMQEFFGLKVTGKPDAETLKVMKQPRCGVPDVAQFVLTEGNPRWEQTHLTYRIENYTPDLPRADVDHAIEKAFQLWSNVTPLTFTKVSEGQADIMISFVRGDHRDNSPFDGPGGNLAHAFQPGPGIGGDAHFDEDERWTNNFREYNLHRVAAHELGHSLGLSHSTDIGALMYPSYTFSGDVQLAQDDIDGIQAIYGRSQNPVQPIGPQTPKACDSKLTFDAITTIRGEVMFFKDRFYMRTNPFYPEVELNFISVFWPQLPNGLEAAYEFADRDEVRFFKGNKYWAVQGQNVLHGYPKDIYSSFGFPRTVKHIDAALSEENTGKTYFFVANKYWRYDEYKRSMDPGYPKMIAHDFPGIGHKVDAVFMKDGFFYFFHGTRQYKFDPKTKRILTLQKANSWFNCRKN

[7] = target: 5-hydroxytryptamine receptor 2B (Homo sapiens, UniProt P41595); format: cell membranes, CHO-K1, Membrane; note: in other assays of this panel Not Active means under 50% inhibition at 10 µM
Chain of 5-hydroxytryptamine receptor 2B (P41595 whole entry): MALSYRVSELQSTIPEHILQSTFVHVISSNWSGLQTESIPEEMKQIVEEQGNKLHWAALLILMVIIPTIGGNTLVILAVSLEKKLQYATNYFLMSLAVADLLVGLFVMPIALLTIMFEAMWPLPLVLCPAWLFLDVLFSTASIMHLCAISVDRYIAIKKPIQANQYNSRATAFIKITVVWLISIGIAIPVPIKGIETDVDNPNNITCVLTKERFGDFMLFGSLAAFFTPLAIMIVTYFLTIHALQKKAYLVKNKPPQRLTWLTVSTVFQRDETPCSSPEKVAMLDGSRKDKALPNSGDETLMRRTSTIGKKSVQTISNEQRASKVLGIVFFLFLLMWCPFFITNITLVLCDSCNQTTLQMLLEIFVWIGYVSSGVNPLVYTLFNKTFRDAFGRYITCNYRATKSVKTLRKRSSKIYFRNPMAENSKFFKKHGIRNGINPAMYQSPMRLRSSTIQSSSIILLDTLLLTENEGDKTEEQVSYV

[8] = target: Carbonic anhydrase 2 (Homo sapiens, UniProt P00918); test: DRUGMATRIX: Carbonic Anhydrase II enzyme inhibition (substrate: 4-Nitrophenyl acetate (4-NPA)); format: tissue-based, Erythrocyte; conditions: erythrocyte; Not Active = under 50% inhibition at 10 µM
[9] = DRUGMATRIX: Sigma2 radioligand binding (ligand: [3H] Ifenprodil); format: cell membranes, Rattus norvegicus, Wistar, Brain, Membrane; conditions: Not Active = under 50% inhibition at 10 µM
[10] = target: T4, B2 bradykinin receptor (Homo sapiens, UniProt P30411); format: cell membranes, Membrane; conditions: chem-1; note: in other assays of this panel Not Active means under 50% inhibition at 10 µM
T4 sequence (P30411 whole entry): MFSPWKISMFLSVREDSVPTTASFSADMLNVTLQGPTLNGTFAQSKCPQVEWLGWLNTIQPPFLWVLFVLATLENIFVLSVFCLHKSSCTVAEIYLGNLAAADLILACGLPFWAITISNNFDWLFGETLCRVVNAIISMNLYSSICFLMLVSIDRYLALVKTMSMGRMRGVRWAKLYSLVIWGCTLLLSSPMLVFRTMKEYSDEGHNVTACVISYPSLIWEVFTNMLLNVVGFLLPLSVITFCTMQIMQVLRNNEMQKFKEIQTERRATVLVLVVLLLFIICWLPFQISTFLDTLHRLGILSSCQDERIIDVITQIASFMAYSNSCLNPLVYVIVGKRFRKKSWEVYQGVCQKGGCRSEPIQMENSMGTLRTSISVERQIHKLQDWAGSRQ

[11] = DRUGMATRIX: Phosphodiesterase PDE4 enzyme inhibition (substrate: [3H]cAMP + cAMP); conditions: u-937; Not Active = under 50% inhibition at 10 µM
[12] = target: T5, Adenosine receptor A3 (Homo sapiens, UniProt P0DMS8); format: cell membranes, CHO-K1, Membrane; conditions: cho-k1
T5 sequence (P0DMS8 whole entry): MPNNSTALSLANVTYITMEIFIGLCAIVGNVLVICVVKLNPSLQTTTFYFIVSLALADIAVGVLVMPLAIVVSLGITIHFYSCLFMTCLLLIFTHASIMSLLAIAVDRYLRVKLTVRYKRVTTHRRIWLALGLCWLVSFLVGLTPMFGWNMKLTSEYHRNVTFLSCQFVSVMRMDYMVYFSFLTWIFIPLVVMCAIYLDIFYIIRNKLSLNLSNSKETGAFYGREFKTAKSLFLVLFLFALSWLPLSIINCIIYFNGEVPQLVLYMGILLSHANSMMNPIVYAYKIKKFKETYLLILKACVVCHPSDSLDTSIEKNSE

SMILES | IC50 [1] | IC50 [2] | Ki [2] | IC50 [3] | IC50 [4] | Ki [4] | IC50 [5] | IC50 [6] | IC50 ([7]; cho-k1) | IC50 [8] | IC50 [9] | Ki [9] | IC50 [10] | IC50 [11] | Ki [11] | IC50 [12] | Ki [6] | IC50 ([7]; read-out: IC50) [nM] | Ki ([7]; read-out: Ki) [nM]
COCc1c(C(C)C)nc(C(C)C)c(/C=C/[C@@H](O)C[C@@H](O)CC(=O)O)c1-c1ccc(F)cc1 [CERIVASTATIN] | Not Active | Not Active | Not Active | Not Active | Not Active | Not Active | Not Active | Not Active | Not Active | Not Active | Not Active | Not Active | Not Active | Not Active | Not Active | Not Active | – | – | –
O=C1CCc2cc(OCCCCc3nnnn3C3CCCCC3)ccc2N1 [CILOSTAZOL] | Not Active | Not Active | Not Active | Not Active | Not Active | Not Active | Not Active | Not Active | Not Active | Not Active | Not Active | Not Active | Not Active | Not Active | Not Active | Not Active | – | – | –
NCC(=O)O [GLYCINE] | Not Active | Not Active | Not Active | Not Active | Not Active | Not Active | Not Active | Not Active | Not Active | Not Active | Not Active | Not Active | Not Active | Not Active | Not Active | Not Active | – | – | –
CC(=O)[C@@]1(O)CC[C@H]2[C@@H]3C[C@H](C)C4=CC(=O)C=C[C@]4(C)[C@@]3(F)[C@@H](O)C[C@@]21C [FLUOROMETHOLONE] | Not Active | Not Active | Not Active | Not Active | Not Active | Not Active | Not Active | Not Active | Not Active | Not Active | Not Active | Not Active | Not Active | Not Active | Not Active | Not Active | – | – | –
N#C[C@H](O[C@@H]1O[C@H](CO[C@@H]2O[C@H](CO)[C@@H](O)[C@H](O)[C@H]2O)[C@@H](O)[C@H](O)[C@H]1O)c1ccccc1 [AMYGDALIN] | Not Active | Not Active | Not Active | Not Active | Not Active | Not Active | Not Active | – | Not Active | Not Active | Not Active | Not Active | Not Active | Not Active | Not Active | Not Active | Not Active | – | –
CC(C)(Oc1ccc(CCNC(=O)c2ccc(Cl)cc2)cc1)C(=O)O [BEZAFIBRATE] | Not Active | Not Active | Not Active | Not Active | Not Active | Not Active | Not Active | Not Active | Not Active | Not Active | Not Active | Not Active | Not Active | Not Active | Not Active | Not Active | – | – | –
CC=CC(=O)N(CC)c1ccccc1C | Not Active | Not Active | Not Active | Not Active | Not Active | Not Active | Not Active | Not Active | Not Active | Not Active | Not Active | Not Active | Not Active | Not Active | Not Active | Not Active | – | – | –
CN1C[C@H](C(=O)N[C@]2(C)O[C@@]3(O)[C@@H]4CCCN4C(=O)[C@H](Cc4ccccc4)N3C2=O)C=C2c3cccc4[nH]cc(c34)C[C@H]21 [ERGOTAMINE] | Not Active | Not Active | Not Active | Not Active | Not Active | Not Active | Not Active | Not Active | – | Not Active | Not Active | Not Active | Not Active | Not Active | Not Active | Not Active | – | 3.46 | 2.2
C=C(C)[C@@H]1[C@H]2OC(=O)[C@@H]1[C@]1(O)C[C@H]3O[C@]34C(=O)O[C@H]2[C@]14C [PICROTOXININ] | Not Active | Not Active | Not Active | Not Active | Not Active | Not Active | Not Active | Not Active | Not Active | Not Active | Not Active | Not Active | Not Active | Not Active | Not Active | Not Active | – | – | –
